Experimental findings from ChEMBL document CHEMBL1149482, “Syntheses of triazole-modified zanamivir analogues via click chemistry and anti-AIV activities” (Bioorg Med Chem Lett, 2006) are described below.

Calls of active or inactive are those of the source. The calls are words filed in the database; no cut-off is given here.

The first experiment concerns MDCK. Briefly: Antiviral activity against avian influenza virus H5N1 measured as protective rate against MDCK cells at 50 uM by neutral red uptake assay. It counts as functional.
Conditions: not given
With `CCC(O)c1cn([C@H]2C=C(C(=O)O)O[C@@H]([C@H](O)[C@H](O)CO)[C@@H]2NC(C)=O)nn1` (some centres undefined), the Activity is reported as above 61.4%.
Still for that read-out and setting: the result for `CC(=O)N[C@H]1[C@H]([C@H](O)[C@H](O)CO)OC(C(=O)O)=C[C@@H]1n1cc(COc2ccccc2)nn1` reads 34.8%; that for `CCC(O)c1cn([C@H]2C=C(C(=O)OCCC(C)C)O[C@@H]([C@H](O)[C@H](O)CO)[C@@H]2NC(C)=O)nn1` (some centres undefined), 8.9%.
Same read-out and setting: the result for `CC(=O)N[C@H]1[C@H]([C@H](O)[C@H](O)CO)OC(C(=O)O)=C[C@@H]1n1cc(CCO)nn1` reads 14.5%; that for `COC(=O)C1=C[C@H](n2cc(C(=O)OC)nn2)[C@@H](NC(C)=O)[C@H]([C@H](O)[C@H](O)CO)O1`, 9.9%.
Same read-out and setting: with `CC(=O)N[C@H]1[C@H]([C@H](O)[C@H](O)CO)OC(C(=O)O)=C[C@@H]1n1cc(CN2CCOCC2)nn1` the figure was 17.3%; with `CC(=O)N[C@H]1[C@H]([C@H](O)[C@H](O)CO)OC(C(=O)O)=C[C@@H]1n1cc(-c2ccc(-c3ccccc3)cc2)nn1`, 19.1%.
As for `CC(=O)N[C@H]1[C@H]([C@H](O)[C@H](O)CO)OC(C(=O)O)=C[C@@H]1n1cc(-c2ccccn2)nn1`, the result was inactive.
On the same count and under the same terms, with `CCCOc1ccc(-c2cn([C@H]3C=C(C(=O)O)O[C@@H]([C@H](O)[C@H](O)CO)[C@@H]3NC(C)=O)nn2)cc1` the figure was 40.2%; with `CC(=O)N[C@H]1[C@H]([C@H](O)[C@H](O)CO)OC(C(=O)O)=C[C@@H]1NC(=N)N` [ZANAMIVIR], 86.1%; with `CC(=O)N[C@H]1[C@H]([C@H](O)[C@H](O)CO)OC(C(=O)O)=C[C@@H]1n1cc(CCCO)nn1`, 6.3%.
As to `CCc1ccc(-c2cn([C@H]3C=C(C(=O)O)O[C@@H]([C@H](O)[C@H](O)CO)[C@@H]3NC(C)=O)nn2)cc1`, the Activity came to 34.4%.
The same measure, in the same setting: with `CC(=O)N[C@H]1[C@H]([C@H](O)[C@H](O)CO)OC(C(=O)O)=C[C@@H]1n1cc(CN)nn1` the entry was “inactive”; with `CC(=O)N[C@H]1[C@H]([C@H](O)[C@H](O)CO)OC(C(=O)O)=C[C@@H]1n1cc(-c2ccc(F)cc2)nn1`, “inactive”.
As for `CCCc1ccc(-c2cn([C@H]3C=C(C(=O)O)O[C@@H]([C@H](O)[C@H](O)CO)[C@@H]3NC(C)=O)nn2)cc1`, the Activity is recorded as 22.1%.
Still for that read-out and setting: with `CC(=O)N[C@H]1[C@H]([C@H](O)[C@H](O)CO)OC(C(=O)O)=C[C@@H]1n1cc(C2CC2)nn1` the figure was 8.9%; with `CC(=O)N[C@H]1[C@H]([C@H](O)[C@H](O)CO)OC(C(=O)O)=C[C@@H]1n1cc(-c2ccccc2)nn1`, 18.7%.

The test system of the next experiment is MDCK. The experiment is described as follows: Antiviral activity against avian influenza virus H5N1 in MDCK cells measured as reduction in infected cells relative to control. It counts as functional, cell-based. The note with it: Canis lupus familiaris.
Take `CCC(O)c1cn([C@H]2C=C(C(=O)O)O[C@@H]([C@H](O)[C@H](O)CO)[C@@H]2NC(C)=O)nn1` (some centres undefined): the EC50 was 6.4 µM. This counts as single-digit micromolar.
In the case of `CC(=O)N[C@H]1[C@H]([C@H](O)[C@H](O)CO)OC(C(=O)O)=C[C@@H]1NC(=N)N` [ZANAMIVIR], the EC50 worked out at 2.8 µM.
